Source: patent US6794397B2, “Substituted nicotinamides and analogs as activators of caspases and inducers of apoptosis and the use thereof” (Cytovia, Inc., priority 2000, dated 2004)
pIC50: −log10 of the molar value. “Also recorded” adds a separate entry of the source. Read-outs that look alike come from different tables or passages of the source.

Legend:
T47D [1] = assay: Caspase cascade activation assay (N-(Ac-DEVD)-N'-ethoxycarbonyl-R110 fluorogenic substrate) in T47D cells; type: cell-based, Human; settings: 24 h incubation; for EC50 / EC50 (nM) caspase potency: sigmoidal dose-response; for EC50: read-out: EC50 (nM) caspase potency; for Caspase activity Ratio: ratio of net RFU of test compound to control, 0.16 to 10 μM final
Protocol: (§1) Human breast cancer cell lines T47D and ZR75-1 were grown according to media component mixtures designated by American Type Culture Collection +10% FCS (Invitrogen Corporation, Life Technologies Division), in a 5% CO2 −95% humidity incubator at 37° C. T47D and ZR75-1 cells were maintained at a cell density between 30 and 80% confluency at a cell density of 0.1 to 0.6×10^6 cells/ml. Cells were harvested at 600xg and resuspended at 0.65×10^6 cells/ml into appropriate media +10% FCS. An aliquot of 45 μl of cells was added to a well of a 96-well microtiter plate containing 5 μl of a 10% DMSO in RPMI-1640 media solution containing 1.6 to 100 μM of N-(4-methoxy-2-nitrophenyl)-3-pyridinecarboxamide or other test compound (0.16 to 10 μM final). An aliquot of 45 μl of cells was added to a well of a 96-well microtiter plate containing 5 μl of a 10% DMSO in RPMI-1640 media solution without test compound as the control sample. The samples were mixed by agitation and then incubated at 37 C. for 24 h in a 5% CO2 −95% humidity incubator. After incubation, the samples were removed from the incubator and 50 μl of a solution containing 20 μM of N-(Ac-DEVD)-N′-ethoxycarbonyl-R110 (SEQ ID NO: 1) fluorogenic substrate (Cytovia, Inc.; WO99/18856), 20% sucrose (Sigma), 20 mM DTT (Sigma), 200 mM NaCl (Sigma), 40 mM Na PIPES buffer pH 7.2 (Sigma), and 500 μg/ml lysolecithin (Calbiochem) was added. The samples were mixed by agitation and incubated at room temperature. Using a fluorescent plate reader (Model 1420 Wallac Instruments), an initial reading (T=0) was made approximately 1-2 min after addition of the substrate solution, employing excitation at 485 nm and emission at 530 nm, to determine the background fluorescence of the control sample. After the 3 h incubation, the samples were read for fluorescence as above (T=3 h).
(§2) The Relative Fluorescence Unit values (RFU) were used to calculate the sample readings as follows:
(§3) RFU(T=3h)−Control RFU(T=0)=Net RFU(T=3h).
(§4) The activity of caspase cascade activation was determined by the ratio of the net RFU value for N-(4-methoxy-2-nitrophenyl)-3-pyridinecarboxamide or other test compound to that of control samples. The EC50 (nM) was determined by a sigmoidal dose-response calculation (Prism 2.0, GraphPad Software Inc.).

T47D [2] = assay: Cell cycle arrest and apoptosis in T47D cells (propidium iodide flow cytometry); type: cell-based, Human; settings: 48 h
Protocol: T47D, a breast cancer cell line, was maintained and harvested as described in Example 71. […] As a control, cells were also incubated with equivalent amount of solvent as control (DMSO). Cells were harvested at 1,200 rpm and washed twice with 5 mM EDTA/PBS. Cells were then resuspended in 300 μl EDTA/PBS and 700 μl of 100% ethanol, vortexed and incubated at room temperature for 1 h. Samples were spun down at 1,200 rpm for 5 min and the supernatant was removed. A solution containing 100 μg/ml of propidium iodide and 1 mg/ml of RNAse A (fresh) was added to the samples and incubated for 1 h at room temperature. Samples were then transferred to 12×75 mm polystyrene tubes and analyzed on a flow cytometer. All flow cytometry analyses were performed on FACScalibur (Becton Dickinson) using Cell Quest analysis software. On the x-axis is plotted the fluorescence intensity and on the y-axis is plotted the number of cells with that fluorescence intensity. […] An increase in the sub-diploid DNA content of cells (marker M1 region, FIG. 3) is also seen to increase from 2% to 25% with compound treatment. The sub-diploid amount of DNA (M1) is indicative of apoptotic cells which have undergone DNA degradation or fragmentation.

Jurkat cells [3] = assay: Nuclear fragmentation in Jurkat cells (Syto16 staining); type: cell-based; settings: 5 μM, 24 h, Syto16 stain
Protocol: The ability of N-(4-methoxy-2-nitrophenyl)-3-pyridinecarboxamide to induce nuclear fragmentation was tested by treatment of Jurkat cells with the test compound followed by staining of the nucleus with Sytol6, a fluorescent DNA dye (Molecular Probes, Eugene, Oreg.). The nuclei of Jurkat cells treated with vehicle control (DMSO) are seen to be round with dispersed chromatin that is moderately stained with Sytol6 (FIG. 1A).

Jurkat cells [4] = assay: Mitotic arrest in Jurkat cells (mitotic figures counted); type: cell-based; settings: 0.02 μM to 5 μM, 6 h
Protocol: Jurkat cells were incubated with a range of concentrations of N-(4-methoxy-2-nitrophenyl)-3-pyridinecarboxamide (0.02 μM to 5 μM) for 6 h under normal growth conditions; control cultures were treated with DMSO vehicle. The cells were then treated for 20 min. with 800 nM Syto 16 (Molecular Probes, Eugene, OR). Cytospin preparations were then prepared and the samples were viewed by fluorescent microscopy using a fluorescein filter set. For each concentration of test compound, the number of mitotic figures were counted and expressed as a percentage of the total number of cells. Three fields from each condition were evaluated and the mean and SEM were calculated and plotted as a function of drug concentration (FIG. 2).

ZR75-1 = assay: Caspase cascade activation assay (N-(Ac-DEVD)-N'-ethoxycarbonyl-R110 fluorogenic substrate) in ZR75-1 cells; type: cell-based, Human; settings: for EC50: read-out: EC50 (nM) caspase potency; for Caspase activity Ratio: ratio of net RFU of test compound to control, 0.16 to 10 μM final
Protocol: as §1, §2, §3, §4

HeLa cells = assay: Inhibition of proliferation / colony formation of HeLa cells; type: cell-based; settings: Homo sapiens, 48 hr treatment, colonies counted after 5-7 days
Protocol: HeLa cells were grown according to media component mixtures designated by American Type Culture Collection +10% FCS (Invitrogen Corporation, Life Technologies Division), in a 5% CO2 −95% humidity incubator at 37° C. In a well of a 96 well plate, 30,000 cells were seeded and treated with compound at the indicated concentrations for 48 hr in a 5% CO2−95% humidity incubator at 37° C. Control wells were treated with the same amount of solvent (DMSO) as the compound samples. After the indicated treatment time, the supernatant was removed to a sterile culture tube and the wells washed with phosphate buffered saline, and the adherent cells trypsinized for 5 min. The trypsinzed cells were added to the culture supernatant, cells were collected (1,200 rpm, 10 min), washed with phosphate buffered saline, and resuspended in fresh media. The cells were counted for trypan blue negative cells, and the cells were diluted with fresh media to 1,000 cells/ml. To a well of a 24-well plate, 0.1 ml of the cell suspension was added along with 1 ml of fresh media (cell suspensions were passed through a 22G needle several times just before plating to form single cell suspensions). […] Colonies are counted when the sizes reached greater than 50 cells per colony. […] Colonies are rinsed with water and the colonies counted and the fraction surviving expressed as the percentage of the number of control colonies.

[5] = Homo sapiens, ZR-75-1, 24 h incubation, sigmoidal dose-response
[6] = 24 h incubation, sigmoidal dose-response

Molecule	EC50 (T47D [1]; Homo sapiens) [nM]	Caspase activity Ratio (T47D [1])	EC50 (ZR75-1; [5]) [nM]	Caspase activity Ratio (ZR75-1; 24 h incubation)	further results
COc1ccc(NC(=O)c2cccnc2)c([N+](=O)[O-])c1 [Example 29, N-(4-Methoxy-2-nitrophenyl)-3-pyridinecarboxamide]	1800	5.8	1000	6.4	G1 (M2) cells (T47D [2]; 10 μM): a reduction in the G1(M2); G2/M DNA content (M4) cells (T47D [2]; 10 μM): increase in G2/M DNA content; also recorded: an increase in the G2/M (M4); sub-diploid DNA content of cells (M1), in words (T47D [2]; 10 μM): increase; sub-diploid DNA content of cells (M1) (T47D [2]; 10 μM, control 2%): 25%; Nuclear fragmentation (nuclear morphology) (Jurkat cells [3]): shrunken and fragmented nuclei; Mitotic arrest (Jurkat cells [4]): effective inducer of mitotic arrest; also recorded: increasing percent of mitotic arrest with increasing drug concentration
CCOc1ccc(NC(=O)c2ccc(Cl)nc2)c([N+](=O)[O-])c1 [Example 8, 6-Chloro-N-(4-ethoxy-2-nitrophenyl)-3-pyridinecarboxamide]	153	5.0	77	6.3	G1 (M2) cells (T47D [2]; 1 μM): a reduction in the G1(M2); G2/M phase (M4) cells (T47D [2]; 1 μM): accumulation of T47D cells in the G2/M phase; also recorded: an increase in the G2/M (M4); sub-G1 / sub-diploid DNA content of cells (M1) (T47D [2]; 1 μM): increase substantially over control cells; pIC50 (HeLa cells): ~7.00
COc1cc([N+](=O)[O-])c(NC(=O)c2ccc(Cl)nc2)cc1Br [Example 4, 6-Chloro-N-(3-bromo-4-methoxy-6-nitrophenyl)-3-pyridinecarboxamide]		Inactive	4030	3.2	EC50 (nM) caspase potency (T47D [1]): Inactive
COc1ccc(NC(=O)c2ccc(Cl)nc2)c([N+](=O)[O-])c1 [Example 7, 6-Chloro-N-(4-methoxy-2-nitrophenyl)-3-pyridinecarboxamide]	593	8.1	230	2.7	
O=C(Nc1cc(F)c(F)cc1[N+](=O)[O-])c1ccc(Cl)nc1 [Example 19, 6-Chloro-N-(4,5-difluoro-2-nitrophenyl)-3-pyridinecarboxamide]	3550	2.7	6880	3.8	
COc1ccc(NC(=O)c2cccnc2Cl)c([N+](=O)[O-])c1 [Example 6, 2-Chloro-N-(4-methoxy-2-nitrophenyl)-3-pyridinecarboxamide]		Inactive		Inactive	EC50 (nM) caspase potency (T47D [1]): Inactive; EC50 (nM) caspase potency (ZR75-1; [6]): Inactive
4-Chloro-N-(4-ethoxy-2-nitrophenyl)-benzoylamide [Example 18]		3.0		5.1	EC50 (T47D [1]): 6750 nM; EC50 (ZR75-1; [6]): 3840 nM
